How the values were obtained:
Assay type in all cases: physicochemical
[1] = Dynamic vapor sorption (DVS) hygroscopicity
Description: Dynamic vapor sorption (DVS) was used to investigate hygroscopicities of an active pharmaceutical ingredient in different crystal forms.
Determination method: • instrument: dynamic vapor sorption analyzer; temperature: 25°C; protective gas and flow rate: N2, 200 mL/min; • dm/dt: 0.002%/min; RH range: 0%RH-100%RH; cycle: 1 full cycle.

[2] = Flowability test (angle of repose)
Description: A flowability determination method was as follows: an angle of repose was determined by using a device composed of 2 to 3 funnels connected in series in a staggered manner, and drug powder was slowly and uniformly passed through the funnels onto a stationary base with a diameter d, so as to form a symmetric powder pile with a single layer of powder at the bottom. During the formation of the powder pile, a height of the funnels was maintained within 2-4 cm from a top of the powder pile, a height h of the cone was determined, and the angle of repose was calculated as tanθ=h/(d/2).

[3] = Accelerated test, related substances by HPLC; conditions: 40°C±2°C, 75%RH±5%RH; for Impurity content RRT0.55 / Impurity content RRT0.66 / Impurity content RRT0.71 / Impurity content RRT0.94 / Impurity content RRT1.02 / Impurity content RRT1.06 / Impurity content RRT1.08 / Impurity content RRT1.15 / Total impurities: open
Description: An investigation method for the accelerated test can be seen in Table 14 below.
Change results of related substances in each crystal form under the accelerated condition (40°C±2°C, 75%RH±5%RH) can be seen in Table 18.
HPLC detection results of related substances under the accelerated condition can be seen as follows: Table 18

[4] = Light exposure test, related substances by HPLC; conditions: for Impurity content RRT0.55 / Impurity content RRT0.66 / Impurity content RRT0.71 / Impurity content RRT0.94 / Impurity content RRT1.02 / Impurity content RRT1.06 / Impurity content RRT1.08 / Impurity content RRT1.15 / Total impurities: 4500lx±500lx, open
Description: An investigation method for the light exposure test can be seen in Table 13 below.
Results of related substances in each crystal form under the light exposure condition (4500lx±500lx) can be seen in Table 17.
HPLC detection results of related substances under the light exposure condition can be seen as follows: Table 17

[5] = High-humidity test, related substances by HPLC; conditions: 90%RH±5%RH; for Impurity content RRT0.55 / Impurity content RRT0.66 / Impurity content RRT0.71 / Impurity content RRT0.94 / Impurity content RRT1.02 / Impurity content RRT1.06 / Impurity content RRT1.08 / Impurity content RRT1.15 / Total impurities: open
Description: An investigation method for the high-humidity test can be seen in Table 12 below.
Results of related substances in each crystal form under the high-humidity condition (90%RH±5%RH) can be seen in Table 16.
HPLC detection results of related substances under the high-humidity condition can be seen as follows: Table 16

C[C@@H](Nc1ccn2ncc(C3=NOC(C)(C)N3)c2n1)c1cc(F)cc(F)c1F [crystal form A]
Hygroscopicity (conclusion) [1]: did not have hygroscopicity under conventional conditions | DVS weight loss ([1]; at 0% humidity, 25°C): 3-4% | DVS hygroscopicity ([1]; humidity 90% or more): obvious hygroscopicity | DVS weight gain ([1]; humidity increased from 0% to 20%): significant weight gain | DVS hygroscopic weight gain ([1]; humidity increased from 20% to 80%): almost no hygroscopic weight gain | angle of repose [2]: approximately 32.7 ° | Increase of impurity RRT1.08 content ([3]; 32 days): 0.04% | Impurity content RRT0.55 ([3]; 0 day): 0.03% | Impurity content RRT0.66 ([3]; 0 day): 0.18% | Impurity content RRT0.71 ([3]; 0 day): 0.15% | Impurity content RRT0.94 ([3]; 0 day): 0.04% | Impurity content RRT1.02 ([3]; 0 day): 0.28% | Impurity content RRT1.06 ([3]; 0 day): 0.07% | Impurity content RRT1.08 ([3]; 0 day): 0.16% | Impurity content RRT1.15 ([3]; 0 day): 0.03% | Total impurities ([3]; 0 day): 0.95% | Impurity content RRT0.55 ([3]; 5 days): 0.03% | Impurity content RRT0.66 ([3]; 5 days): 0.20% | Impurity content RRT0.71 ([3]; 5 days): 0.16% | Impurity content RRT0.94 ([3]; 5 days): 0.04% | Impurity content RRT1.02 ([3]; 5 days): 0.30% | Impurity content RRT1.06 ([3]; 5 days): 0.08% | Impurity content RRT1.08 ([3]; 5 days): 0.18% | Impurity content RRT1.15 ([3]; 5 days): 0.03% | Total impurities ([3]; 5 days): 1.02% | Impurity content RRT0.55 ([3]; 11 days): 0.04% | Impurity content RRT0.66 ([3]; 11 days): 0.20% | Impurity content RRT0.71 ([3]; 11 days): 0.17% | Impurity content RRT0.94 ([3]; 11 days): 0.03% | Impurity content RRT1.02 ([3]; 11 days): 0.33% | Impurity content RRT1.06 ([3]; 11 days): 0.09% | Impurity content RRT1.08 ([3]; 11 days): 0.25% | Impurity content RRT1.15 ([3]; 11 days): 0.04% | Total impurities ([3]; 11 days): 1.14% | Impurity content RRT0.55 ([3]; 32 days): 0.04% | Impurity content RRT0.66 ([3]; 32 days): 0.20% | Impurity content RRT0.71 ([3]; 32 days): 0.16% | Impurity content RRT0.94 ([3]; 32 days): 0.04% | Impurity content RRT1.02 ([3]; 32 days): 0.27% | Impurity content RRT1.06 ([3]; 32 days): 0.07% | Impurity content RRT1.08 ([3]; 32 days): 0.20% | Impurity content RRT1.15 ([3]; 32 days): 0.06% | Total impurities ([3]; 32 days): 1.03% | Increase of impurity RRT0.66 content ([4]; 4500 lx±500 lx, 32 days): 0.09% | Increase of impurity RRT0.71 content ([4]; 4500 lx±500 lx, 32 days): not increased | Increase of impurity RRT1.02 content ([4]; 4500 lx±500 lx, 32 days): not increased | Increase of impurity RRT1.08 content ([4]; 4500 lx±500 lx, 32 days): 0.09% | Increase of total impurities ([4]; 4500 lx±500 lx, 32 days): 0.13% | Impurity content RRT0.55 ([4]; 0 day): 0.03% | Impurity content RRT0.66 ([4]; 0 day): 0.18% | Impurity content RRT0.71 ([4]; 0 day): 0.15% | Impurity content RRT0.94 ([4]; 0 day): 0.04% | Impurity content RRT1.02 ([4]; 0 day): 0.28% | Impurity content RRT1.06 ([4]; 0 day): 0.07% | Impurity content RRT1.08 ([4]; 0 day): 0.16% | Impurity content RRT1.15 ([4]; 0 day): 0.03% | Total impurities ([4]; 0 day): 0.95% | Impurity content RRT0.55 ([4]; 5 days): 0.03% | Impurity content RRT0.66 ([4]; 5 days): 0.21% | Impurity content RRT0.71 ([4]; 5 days): 0.14% | Impurity content RRT0.94 ([4]; 5 days): 0.04% | Impurity content RRT1.02 ([4]; 5 days): 0.30% | Impurity content RRT1.06 ([4]; 5 days): 0.08% | Impurity content RRT1.08 ([4]; 5 days): 0.20% | Impurity content RRT1.15 ([4]; 5 days): 0.04% | Total impurities ([4]; 5 days): 1.03% | Impurity content RRT0.55 ([4]; 11 days): 0.03% | Impurity content RRT0.66 ([4]; 11 days): 0.22% | Impurity content RRT0.71 ([4]; 11 days): 0.15% | Impurity content RRT0.94 ([4]; 11 days): 0.03% | Impurity content RRT1.02 ([4]; 11 days): 0.31% | Impurity content RRT1.06 ([4]; 11 days): 0.07% | Impurity content RRT1.08 ([4]; 11 days): 0.22% | Impurity content RRT1.15 ([4]; 11 days): 0.04% | Total impurities ([4]; 11 days): 1.08% | Impurity content RRT0.55 ([4]; 32 days): 0.03% | Impurity content RRT0.66 ([4]; 32 days): 0.27% | Impurity content RRT0.71 ([4]; 32 days): 0.10% | Impurity content RRT0.94 ([4]; 32 days): 0.07% | Impurity content RRT1.02 ([4]; 32 days): 0.28% | Impurity content RRT1.06 ([4]; 32 days): 0.06% | Impurity content RRT1.08 ([4]; 32 days): 0.25% | Impurity content RRT1.15 ([4]; 32 days): 0.02% | Total impurities ([4]; 32 days): 1.08% | Increase of impurity RRT1.02 content ([5]; 32 days): no essential changes | Increase of impurity RRT1.08 content ([5]; 32 days): no essential change | Increase of total impurities ([5]; 32 days): 0.03% | Impurity content RRT0.55 ([5]; 0 day): 0.03% | Impurity content RRT0.66 ([5]; 0 day): 0.18% | Impurity content RRT0.71 ([5]; 0 day): 0.15% | Impurity content RRT0.94 ([5]; 0 day): 0.04% | Impurity content RRT1.02 ([5]; 0 day): 0.28% | Impurity content RRT1.06 ([5]; 0 day): 0.07% | Impurity content RRT1.08 ([5]; 0 day): 0.16% | Impurity content RRT1.15 ([5]; 0 day): 0.03% | Total impurities ([5]; 0 day): 0.95% | Impurity content RRT0.55 ([5]; 5 days): 0.03% | Impurity content RRT0.66 ([5]; 5 days): 0.20% | Impurity content RRT0.71 ([5]; 5 days): 0.16% | Impurity content RRT0.94 ([5]; 5 days): 0.03% | Impurity content RRT1.02 ([5]; 5 days): 0.31% | Impurity content RRT1.06 ([5]; 5 days): 0.09% | Impurity content RRT1.08 ([5]; 5 days): 0.21% | Impurity content RRT1.15 ([5]; 5 days): 0.04% | Total impurities ([5]; 5 days): 1.07% | Impurity content RRT0.55 ([5]; 11 days): 0.03% | Impurity content RRT0.66 ([5]; 11 days): 0.20% | Impurity content RRT0.71 ([5]; 11 days): 0.16% | Impurity content RRT0.94 ([5]; 11 days): 0.03% | Impurity content RRT1.02 ([5]; 11 days): 0.30% | Impurity content RRT1.06 ([5]; 11 days): 0.08% | Impurity content RRT1.08 ([5]; 11 days): 0.21% | Impurity content RRT1.15 ([5]; 11 days): 0.03% | Total impurities ([5]; 11 days): 1.05% | Impurity content RRT0.55 ([5]; 32 days): 0.03% | Impurity content RRT0.66 ([5]; 32 days): 0.18% | Impurity content RRT0.71 ([5]; 32 days): 0.16% | Impurity content RRT0.94 ([5]; 32 days): 0.05% | Impurity content RRT1.02 ([5]; 32 days): 0.26% | Impurity content RRT1.06 ([5]; 32 days): 0.06% | Impurity content RRT1.08 ([5]; 32 days): 0.18% | Impurity content RRT1.15 ([5]; 32 days): 0.05% | Total impurities ([5]; 32 days): 0.98%

From patent EP4813989A1, “CRYSTAL, PHARMACEUTICAL COMPOSITION, PREPARATION METHOD THEREFOR, AND USE THEREOF” (TYK Medicines, Inc., priority 2023, dated 2025)
